Patent US6864286B2, “Inhibitors of the EGF-receptor tyrosine kinase and methods for their use” (Parker Hughes Institute, priority 1998, dated 2005)
Like-named read-outs stand apart in the source and are kept apart here.

Legend:
[1] = molecular target: T1, EGFR tyrosine kinase (Homo sapiens, UniProt P00533); experiment: Cell-free EGFR immune complex kinase assay; assay type: biochemical; conditions: EGFR immunoprecipitated from MDA-MB-231 lysates, 1 hour incubation, read-out: EGFR Inhibition IC50
T1 construct: anti-EGFR immunoprecipitates from lysates of MDA-MB-231 human breast cancer cells; endogenous in cells; host or cells: MDA-MB-231 (ATCC HTB-26)
Experimental: (§1) For EGFR immune complex kinase assays, 24-hours after treatment with leflunomide analogs, MDA-MB-231 breast cancer cells were stimulated with 20 ng/mL EGF for 5 minutes, lysed in 1% Nonidet-P-40 buffer, and cell lysates were immunoprecipitated with an anti-EGFR antibody reactive with the sequence Ala^351-Asp^364 of the human EGFR (Upstate Biotechnology Inc. [UBI] Catalog # 05-104) (Uckun, F. M., et al. Clin. Can. Res. 1998, 4, 901). EGFR immune complexes were examined for tyrosine phosphorylation by Western blot analysis, as described by Uckun, F. M., et al. Clin. Can. Res. 1998, 4, 901. All anti-phosphotyrosine Western blots were subjected to densitometric scanning using the automated AMBIS system (Automated Microbiology System, Inc., San Diego, Calif.) and for each time point a % inhibition value was determined by comparing the density ratios of the tyrosine phosphorylated EGFR protein bands to those of the baseline sample and using the formula: % Inhibition=100−100×[Density of tyrosine phosphorylated EGFR band]test sample/[Density of tyrosine phosphorylated EGFR band]baseline control sample. The IC50 values were determined using an Inplot program (Graphpad Software, Inc., San Diego, Calif.).
In other experiments, MDA-MB-231 cells were stimulated with 10 ng/ml EGF prior to immunoprecipitation of the EGFR. EGFR immune complexes were incubated for 1 hour at room temperature with various LFM analogs and tyrosine kinase assays were performed in the presence of [γ-^32P]-ATP, as previously described (Uckun, F. M., et al. Clin. Can. Res. 1998, 4, 901; Narla, R. K., et al. Clin. Can. Res 1998, 1405; Uckun, F. M., et al. Science 1996, 22, 1096; Uckun, F. M., et al. Science 1995, 267, 886). The kinase assay gels were analyzed both by autoradiography and using the BioRad Storage Phosphor Imager System (BioRad, Hercules, Calif.) for quantitative scanning.

[2] = molecular target: T2, JAK1 (Homo sapiens, UniProt P23458); experiment: Cell-free JAK1 immune complex kinase assay; assay type: biochemical; conditions: for effect on enzymatic activity of JAK1: at concentrations as high as 350 μM
T2 construct: made in house; host or cells: Sf21 insect cells (baculovirus)
Experimental: Immunoprecipitations, immune-complex protein kinase assays, and immunoblotting using the ECL chemiluminescence detection system (Amersham Life Sciences) were conducted as described previously (Vassilev, A., et al. J. Biol. Chem. 1998, in press; Goodman, P. A., et al. J. Biol. Chem. 1998, 273, 17742; Mahajan, S., et al. Mol. Cell. Biol. 1995, 15, 5304; Uckun, F. M., et al. Science 1996, 22, 1096).

[3] = tested on: MDA-MB-231 human breast cancer cells; experiment: Transfilter cell invasion assay (Matrigel-coated Boyden chambers); assay type: cell-based
Experimental: The chamber filters were coated with 50 μg/ml of Matrigel matrix, incubated overnight at room temperature under a laminar flow hood and stored at 4° C.
On the day of the experiment, the coated inserts were rehydrated with 0.5 ml serum-free DMEM containing 0.1% bovine serum albumin for 1-2 hours. To study the effects of LFM and LFM-A12 on invasiveness of MDA-MB-231 cells, exponentially growing cells were incubated with each compound at various concentrations ranging from 12.5 RM to 100 μM in 0.1% DMSO overnight. The cells were trypsinized, washed twice with serum-free DMEM containing BSA, counted and resuspended at 1×10^5 cells/ml.
A 0.5 ml cell suspension containing 5×10^4 cells in a serum-free DMEM containing LFM, LFM-A12, or vehicle was added to the Matrigel-coated and rehydrated filter inserts. Next, 750 μl of NIH fibroblast conditioned medium was placed as a chemoattractant in 24-well plates and the inserts were placed in wells and incubated at 37° C. for 48 hours. […] The invasive cells that migrated to the lower side of the filter were fixed, stained with Hema-3 solutions and counted under microscope. No cells were detected at the bottom of the Boyden chambers. Therefore, the number of cells on the lower side of the filters accounted for all cells that had migrated through the filter. Five (5) to ten (10) random fields per filter were counted to determine the mean (±SE) values for the invasive fraction. The invasive fractions of cells treated with LFM or LFM-A12 were compared to those of vehicle (0.1% DMSO in PBS) treated control cells and the percent inhibition of invasiveness was determined using the following formula: % Inhibition=100×(1-Invasive Fraction of Drug-Treated Cells/Invasive Fraction of Control Cells).

[4] = molecular target: T3, EGFR tyrosine kinase in MDA-MB-231 cells (Homo sapiens, UniProt P00533); experiment: Cellular EGFR autophosphorylation, anti-phosphotyrosine Western blot; assay type: cell-based; conditions: 24 hour exposure
T3 construct: anti-EGFR immunoprecipitates from lysates of MDA-MB-231 human breast cancer cells; endogenous in cells; host or cells: MDA-MB-231 (ATCC HTB-26)
Experimental: as §1
The effects of LFM and LFM analogs on the enzymatic activity of the EGFR tyrosine kinase in breast cancer cells were also examined. […]

[5] = MDA-MB-231, migration for 48 hours, mean of two experiments, read-out: IC50 for inhibition of invasion through Matrigel matrix

T2 sequence (P23458 whole entry, species assumed): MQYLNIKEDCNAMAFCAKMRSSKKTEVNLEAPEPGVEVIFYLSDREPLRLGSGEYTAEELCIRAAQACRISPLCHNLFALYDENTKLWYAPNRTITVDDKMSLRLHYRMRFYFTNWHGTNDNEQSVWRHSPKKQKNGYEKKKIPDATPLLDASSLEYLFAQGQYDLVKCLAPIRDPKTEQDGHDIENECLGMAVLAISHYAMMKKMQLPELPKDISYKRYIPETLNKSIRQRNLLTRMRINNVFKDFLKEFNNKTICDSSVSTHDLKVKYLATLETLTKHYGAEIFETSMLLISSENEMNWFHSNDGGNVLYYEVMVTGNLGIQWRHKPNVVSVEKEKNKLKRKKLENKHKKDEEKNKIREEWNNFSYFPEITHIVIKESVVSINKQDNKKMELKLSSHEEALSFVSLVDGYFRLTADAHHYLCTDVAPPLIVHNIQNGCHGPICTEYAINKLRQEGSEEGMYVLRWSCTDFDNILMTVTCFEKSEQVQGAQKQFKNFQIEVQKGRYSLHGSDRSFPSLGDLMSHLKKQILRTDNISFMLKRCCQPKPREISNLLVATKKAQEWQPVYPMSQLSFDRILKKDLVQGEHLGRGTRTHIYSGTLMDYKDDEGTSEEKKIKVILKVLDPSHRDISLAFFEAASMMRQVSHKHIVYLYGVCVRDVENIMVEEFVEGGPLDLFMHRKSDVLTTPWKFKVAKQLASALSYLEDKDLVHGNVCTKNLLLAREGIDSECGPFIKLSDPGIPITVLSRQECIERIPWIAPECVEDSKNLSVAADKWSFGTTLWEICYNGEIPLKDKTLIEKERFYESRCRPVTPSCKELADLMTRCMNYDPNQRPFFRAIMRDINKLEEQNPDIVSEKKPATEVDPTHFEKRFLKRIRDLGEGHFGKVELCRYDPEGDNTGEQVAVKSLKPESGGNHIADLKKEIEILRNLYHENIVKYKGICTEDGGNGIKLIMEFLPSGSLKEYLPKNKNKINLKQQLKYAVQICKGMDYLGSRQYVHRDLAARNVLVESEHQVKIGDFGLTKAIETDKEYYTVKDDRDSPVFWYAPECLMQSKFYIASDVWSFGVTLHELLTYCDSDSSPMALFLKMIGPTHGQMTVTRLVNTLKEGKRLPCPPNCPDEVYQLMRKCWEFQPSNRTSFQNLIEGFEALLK
T3 sequence (P00533 25-1210): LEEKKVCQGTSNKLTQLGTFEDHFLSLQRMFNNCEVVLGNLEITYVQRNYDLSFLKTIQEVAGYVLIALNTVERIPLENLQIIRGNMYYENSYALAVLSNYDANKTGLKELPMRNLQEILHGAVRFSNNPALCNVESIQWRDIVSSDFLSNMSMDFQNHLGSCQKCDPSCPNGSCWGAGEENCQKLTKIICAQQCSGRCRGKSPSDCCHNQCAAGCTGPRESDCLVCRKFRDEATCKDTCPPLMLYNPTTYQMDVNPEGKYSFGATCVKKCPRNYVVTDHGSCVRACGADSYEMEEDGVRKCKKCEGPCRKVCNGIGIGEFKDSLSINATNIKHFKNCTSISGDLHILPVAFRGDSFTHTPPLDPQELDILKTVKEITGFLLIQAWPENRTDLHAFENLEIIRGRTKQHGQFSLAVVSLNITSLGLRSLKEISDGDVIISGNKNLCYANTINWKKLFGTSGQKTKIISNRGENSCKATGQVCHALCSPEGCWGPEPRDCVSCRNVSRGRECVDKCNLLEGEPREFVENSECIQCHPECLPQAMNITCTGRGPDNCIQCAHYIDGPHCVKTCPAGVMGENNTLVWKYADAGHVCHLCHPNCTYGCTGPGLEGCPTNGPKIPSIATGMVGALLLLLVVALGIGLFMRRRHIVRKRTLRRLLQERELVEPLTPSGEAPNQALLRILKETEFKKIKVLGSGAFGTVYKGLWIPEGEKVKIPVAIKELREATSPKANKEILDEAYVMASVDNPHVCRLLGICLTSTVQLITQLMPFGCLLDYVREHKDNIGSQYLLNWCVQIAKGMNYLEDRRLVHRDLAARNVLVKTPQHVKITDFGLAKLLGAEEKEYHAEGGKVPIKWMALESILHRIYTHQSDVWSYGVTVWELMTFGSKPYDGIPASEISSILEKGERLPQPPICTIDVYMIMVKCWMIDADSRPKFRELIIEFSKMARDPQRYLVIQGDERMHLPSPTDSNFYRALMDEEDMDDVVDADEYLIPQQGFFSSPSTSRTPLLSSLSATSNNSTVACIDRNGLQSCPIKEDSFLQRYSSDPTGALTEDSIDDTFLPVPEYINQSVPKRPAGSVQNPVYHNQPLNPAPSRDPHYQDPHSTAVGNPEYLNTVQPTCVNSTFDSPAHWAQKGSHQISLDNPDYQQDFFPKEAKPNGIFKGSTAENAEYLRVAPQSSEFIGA
T1 sequence (P00533 25-1210): as above

Row | IC50 [1] | effect on enzymatic activity of JAK1 [2] | IC50 [3, 5] | IC50 ([3]; MDA-MB-231, read-out: IC50 for inhibition of invasion through Matrigel matrix) | IC50 ([2]; JAK1, cell-free, read-out: Inhibition IC50) | Compound | tyrosine phosphorylation of the EGFR after EGF stimulation [4]
1 | 5.4 µM | did not affect the enzymatic activity | 97 µM | 97 µM | – | CC(O)=C(C#N)C(=O)Nc1ccc(C(F)(F)F)cc1 [LFM, α-Cyano-β-hydroxy-β-methyl-N-[4-(trifluoromethyl)phenyl]-propenamide, reference compound] | to a lesser extent
2 | 1.7 µM | did not affect the enzymatic activity | 28.4 µM | – | > 175 µM | C/C(O)=C(\C#N)C(=O)Nc1ccc(OC(F)(F)F)cc1 [LFM-A12, α-Cyano-β-hydroxy-β-methyl-N-[4-(trifluoromethoxy)phenyl]-propenamide] | decreased tyrosine phosphorylation of the EGFR
